# Legend:
# [1] = tested on: Staphylococcus aureus ON89; test: MIC and checkerboard (FICI), planktonic cells; assay type: cell-based
# Method: (§1) The MIC was determined by the micro broth dilution method in 96-well plates. […] A 10 μL containing 1×10^5 bacterial cells or 2×10^3 fungal cells were added to each well. The inoculated plates were covered with a lid, sealed with Parafilm, and incubated for 24 h at 37 °C with slight rocking on a tilting platform shaker. After incubation, the optical density at 600 nm (OD 600) of the cultures in each well was measured using an xMark™ Microplate Absorbance Spectrophotometer (Bio-Rad). The MIC was defined as the lowest concentration of antimicrobial compound at which the culture OD600 values was similar to uninoculated control wells. MBCs and MFCs were determined by transferring 100 μL from each well with no apparent growth onto appropriate agar plates, followed by incubation for 24 h at 37 °C.
# (§2) The concentrations of antimicrobials used were based on previously determined MIC values. […] Microtiter plates were incubated at 37 °C for 24 h, and the results were analyzed. Each test was performed in duplicate and included a growth control without the addition of any antimicrobials.
# C. albicans ON47 [2] = test: MIC and checkerboard (FICI), planktonic cells; assay type: cell-based
# Method: as §1, §2
# Candida albicans SK4b [3] = test: MIC and checkerboard (FICI), planktonic cells; assay type: cell-based
# Method: as §1, §2
# [4] = tested on: Pseudomonas aeruginosa SK1; test: MIC and checkerboard (FICI), planktonic cells; assay type: cell-based
# Method: as §1, §2
# S. epidermidis SK9 [5] = test: MIC and checkerboard (FICI), planktonic cells; assay type: cell-based
# Method: as §1, §2
# Serratia marcescens SK2 [6] = test: MIC and checkerboard (FICI), planktonic cells; assay type: cell-based
# Method: as §1, §2
# Escherichia coli ON29 [7] = test: MIC and checkerboard (FICI), planktonic cells; assay type: cell-based
# Method: as §1, §2
# Proteus mirabilis ON153 [8] = test: MIC and checkerboard (FICI), planktonic cells; assay type: cell-based
# Method: as §1, §2
# E. coli SK2 [9] = test: MIC and checkerboard (FICI), planktonic cells; assay type: cell-based
# Method: as §1, §2
# [10] = tested on: Stenotrophomonas maltophilia ON17; test: MIC and checkerboard (FICI), planktonic cells; assay type: cell-based
# Method: as §1, §2
# [11] = tested on: Staphylococcus epidermidis ON170; test: MIC and checkerboard (FICI), planktonic cells; assay type: cell-based
# Method: as §1, §2
# 12 test organisms = test: MBC/MFC and FMCI, planktonic cells, summary over strains; assay type: cell-based, bacterial and fungal organisms
# Method: as §1, §2
# [12] = tested on: Staphylococcus aureus ON89; test: MBC/MFC and FMCI, planktonic cells; assay type: cell-based
# Method: as §1, §2
# S. epidermidis SK9 [13] = test: MBC/MFC and FMCI, planktonic cells; assay type: cell-based
# Method: as §1, §2
# Serratia marcescens SK2 [14] = test: MBC/MFC and FMCI, planktonic cells; assay type: cell-based
# Method: as §1, §2
# Escherichia coli ON29 [15] = test: MBC/MFC and FMCI, planktonic cells; assay type: cell-based
# Method: as §1, §2
# Proteus mirabilis ON153 [16] = test: MBC/MFC and FMCI, planktonic cells; assay type: cell-based
# Method: as §1, §2
# E. coli SK2 [17] = test: MBC/MFC and FMCI, planktonic cells; assay type: cell-based
# Method: as §1, §2
# [18] = tested on: Staphylococcus epidermidis ON170; test: MBC/MFC and FMCI, planktonic cells; assay type: cell-based
# Method: as §1, §2
# [19] = tested on: bacterial and fungal biofilms; test: Rapid eradication of 48-h-old biofilms within 2 h exposure; assay type: cell-based, bacterial and fungal strains; conditions: at the MBEC alone, 48-h-old biofilm
# Method: This example comprises performing biofilm growth as described above. After biofilm formation, control pegs (n=6) were removed and analyzed to determine the starting biofilm cell numbers via the drop dilution method. The 48-h old biofilms on the pegs were exposed to different concentrations of test antimicrobials, dissolved in an appropriate growth medium, for 2 hours to evaluate their efficacy alone and in combination. […] Following treatment, pegs were washed twice with sterile PBS, and the biofilm cells were dislodged into recovery medium and enumerated as described above.
# C. albicans ON47 [20] = test: MBC/MFC and FMCI, planktonic cells; assay type: cell-based
# Method: as §1, with “The MIC was defined as the lowest concentration of antimicrobial compound at which the culture OD600 values was similar to uninoculated control wells.” left out
# as §2
# Candida albicans SK4b [21] = test: MBC/MFC and FMCI, planktonic cells; assay type: cell-based
# Method: as §1, with “The MIC was defined as the lowest concentration of antimicrobial compound at which the culture OD600 values was similar to uninoculated control wells.” left out
# as §2
# [22] = tested on: Pseudomonas aeruginosa SK1; test: MBC/MFC and FMCI, planktonic cells; assay type: cell-based
# Method: as §1, with “The MIC was defined as the lowest concentration of antimicrobial compound at which the culture OD600 values was similar to uninoculated control wells.” left out
# as §2
# [23] = tested on: Stenotrophomonas maltophilia ON17; test: MBC/MFC and FMCI, planktonic cells; assay type: cell-based
# Method: as §1, with “The MIC was defined as the lowest concentration of antimicrobial compound at which the culture OD600 values was similar to uninoculated control wells.” left out
# as §2
structure (smiles),measurement,setting,value
"CCO [ET, ethanol]",MIC in combination,[1]; TE + ET in combination,0.4%
same,MIC,"[1]; alone, 24 h, 37 °C",6.25%
same,MIC in combination,C. albicans ON47 [2]; TE + ET in combination,0.4%
same,MIC,"C. albicans ON47 [2]; alone, 24 h, 37 °C",6.25%
same,MIC in combination,Candida albicans SK4b [3]; TE + ET in combination,1.6%
same,MIC,"Candida albicans SK4b [3]; alone, 24 h, 37 °C",6.25%
same,MIC in combination,[4]; TE + ET in combination,3.125%
same,MIC,"[4]; alone, 24 h, 37 °C",3.125%
same,MIC in combination,S. epidermidis SK9 [5]; TE + ET in combination,0.4%
same,MIC,"S. epidermidis SK9 [5]; alone, 24 h, 37 °C",6.25%
same,MIC in combination,Serratia marcescens SK2 [6]; TE + ET in combination,3.125%
same,MIC,"Serratia marcescens SK2 [6]; alone, 24 h, 37 °C",6.25%
same,MIC in combination,Escherichia coli ON29 [7]; TE + ET in combination,3.125%
same,MIC,"Escherichia coli ON29 [7]; alone, 24 h, 37 °C",12.5%
same,MIC in combination,Proteus mirabilis ON153 [8]; TE + ET in combination,1.6%
same,MIC,"Proteus mirabilis ON153 [8]; alone, 24 h, 37 °C",6.25%
same,MIC in combination,E. coli SK2 [9]; TE + ET in combination,6.25%
same,MIC,"E. coli SK2 [9]; alone, 24 h, 37 °C",12.5%
same,MIC in combination,[10]; TE + ET in combination,0.4%
same,MIC,"[10]; alone, 24 h, 37 °C",6.25%
same,MIC in combination,[11]; TE + ET in combination,0.4%
same,MIC,"[11]; alone, 24 h, 37 °C",3.125%
same,microbicidal activity,12 test organisms,broad-spectrum microbicidal activity
same,MBC/MFC in combination,[12]; TE + ET in combination,3.125%
same,MBC/MFC,[12]; alone,25%
same,MBC/MFC in combination,S. epidermidis SK9 [13]; TE + ET in combination,3.125%
same,MBC/MFC,S. epidermidis SK9 [13]; alone,12.5%
same,MBC/MFC in combination,Serratia marcescens SK2 [14]; TE + ET in combination,6.25%
same,MBC/MFC,Serratia marcescens SK2 [14]; alone,12.5%
same,MBC/MFC in combination,Escherichia coli ON29 [15]; TE + ET in combination,6.25%
same,MBC/MFC,Escherichia coli ON29 [15]; alone,25%
same,MBC/MFC in combination,Proteus mirabilis ON153 [16]; TE + ET in combination,6.25%
same,MBC/MFC,Proteus mirabilis ON153 [16]; alone,12.5%
same,MBC/MFC in combination,E. coli SK2 [17]; TE + ET in combination,6.25%
same,MBC/MFC,E. coli SK2 [17]; alone,25%
same,MBC/MFC in combination,[18]; TE + ET in combination,1.6%
same,MBC/MFC,[18]; alone,6.25%
same,biofilm eradication,[19],failed to eradicate the preformed biofilms
same,MBC/MFC in combination,C. albicans ON47 [20]; TE + ET in combination,3.125%
same,MBC/MFC,C. albicans ON47 [20]; alone,6.25%
same,MBC/MFC in combination,Candida albicans SK4b [21]; TE + ET in combination,3.125%
same,MBC/MFC,Candida albicans SK4b [21]; alone,6.25%
same,MBC/MFC in combination,[22]; TE + ET in combination,6.25%
same,MBC/MFC,[22]; alone,12.5%
same,MBC/MFC in combination,[23]; TE + ET in combination,1.6%
same,MBC/MFC,[23]; alone,6.25%

# Reference: patent US20260335495A1, “SYNERGISTIC ACTIVITY OF NOVEL COMPOUNDS AGAINST PLANKTONIC AND BIOFILM CELLS OF CLINICALLY RELEVANT PATHOGENS” (priority 2021, published 2026)
